Measurements published in US11613531B2, “Inhibitors of RHO associated coiled-coil containing protein kinase” (Kadmon Corporation, LLC, priority 2017, dated 2023).
Where two headings read alike, the source gives them in different places.

Experiments:
[1] = system: ppMlc (T18/S19) levels in A7R5 cells; assay: A7R5 in-cell ELISA (pMLC); type: cell-based, Rat; conditions: Rattus norvegicus, A7R5, A7R5 cells; for inhibition at 1 µM: 1 μM compound; for inhibition at 1 µM / inhibition at 10 µM: read-out: pMLC % inh A7R5 @ [conc]; for inhibition at 10 µM: 10 μM compound; for IC50: ppMlc (T18/S19)
Procedure, shortened: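 A7R5 rat aortic smooth muscle cells seeded 24 h, then treated 90 min with a 9-point 2-fold compound dilution series. Fixed cells probed for ppMlc (T18/S19) by colorimetric in-cell ELISA; cellular IC50 from nonlinear regression curve fit.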

[2] = target: Recombinant ROCK2 (amino acids 1-552) (Homo sapiens (Human), UniProt O75116); assay: Z′-Lyte kinase assay, ROCK2; type: biochemical; conditions: for inhibition at 1 µM: 1 μM compound, read-out: ROCK2 % inh. @ [conc]
Procedure, shortened: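 Recombinant human ROCK1 (aa 1-535) or ROCK2 (aa 1-552) activity read by Z′-Lyte kinase assay. Percent inhibition at 1 μM compound was normalized to DMSO control; IC50 from 9-point 2-fold serial dilutions by nonlinear regression.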

[3] = 9 points 2-fold serial dilution

Sequence of Recombinant ROCK2 (amino acids 1-552) (O75116 1-552): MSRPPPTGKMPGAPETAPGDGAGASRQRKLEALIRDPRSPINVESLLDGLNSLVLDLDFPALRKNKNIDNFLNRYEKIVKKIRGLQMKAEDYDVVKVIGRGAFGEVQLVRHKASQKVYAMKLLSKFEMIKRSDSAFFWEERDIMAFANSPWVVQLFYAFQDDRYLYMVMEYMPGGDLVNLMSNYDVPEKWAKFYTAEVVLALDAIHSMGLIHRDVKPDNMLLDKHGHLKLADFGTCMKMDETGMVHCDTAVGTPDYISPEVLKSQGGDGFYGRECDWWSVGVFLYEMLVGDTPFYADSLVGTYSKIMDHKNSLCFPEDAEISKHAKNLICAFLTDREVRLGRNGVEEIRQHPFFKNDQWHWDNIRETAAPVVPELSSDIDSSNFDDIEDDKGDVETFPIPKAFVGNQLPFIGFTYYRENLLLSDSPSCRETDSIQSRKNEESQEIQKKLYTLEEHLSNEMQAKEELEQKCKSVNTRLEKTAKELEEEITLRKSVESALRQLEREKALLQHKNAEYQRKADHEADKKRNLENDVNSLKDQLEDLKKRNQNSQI

SMILES	inhibition at 1 µM [2] [%]	IC50 [1] [nM]	inhibition at 1 µM [1] [%]	inhibition at 10 µM [1] [%]	IC50 [2, 3] [nM]	IC50 [2] [nM]
Cc1cc(Nc2ccc3[nH]ncc3c2)nc(N2CC(C3CCNCC3)c3ccccc32)n1 (centres unmarked) [Example 137, N-(6-methyl-2-(3-(piperidin-4-yl)indolin-1-yl)pyrimidin-4-yl)-1H-indazol-5-amine]	21.6	–	24.4	–	–	–
Cc1cc(Nc2ccc3[nH]ncc3c2)nc(N2CC3(CCNCC3)c3ccccc32)n1 [Example 138, N-(6-methyl-2-(spiro[indoline-3,4′-piperidin]-1-yl)pyrimidin-4-yl)-1H-indazol-5-amine]	9.1	–	15.2	–	–	–
CC1CN(c2ncc(F)c(Nc3ccc4[nH]ncc4c3)n2)CCN1 (centres unmarked) [Example 140, N-(5-fluoro-2-(3-methylpiperazin-1-yl)pyrimidin-4-yl)-1H-indazol-5-amine]	88	734	–	63.5	–	–
CCC1CNCCN1c1ncc(F)c(Nc2ccc3[nH]ncc3c2)n1 (centres unmarked) [Example 143, N-(2-(2-ethylpiperazin-1-yl)-5-fluoropyrimidin-4-yl)-1H-indazol-5-amine]	59.3	2150	–	49.8	–	–
CCC1CCN(c2ncc(F)c(Nc3ccc4[nH]ncc4c3)n2)CCN1 (centres unmarked) [Example 146, N-(2-(5-ethyl-1,4-diazepan-1-yl)-5-fluoropyrimidin-4-yl)-1H-indazol-5-amine]	71.8	2060	–	50.2	–	–
CC(C)C1CN(c2ncc(F)c(Nc3ccc4[nH]ncc4c3)n2)CCN1 (centres unmarked) [Example 147, N-(5-fluoro-2-(3-isopropylpiperazin-1-yl)pyrimidin-4-yl)-1H-indazol-5-amine]	37.6	–	–	47.8	–	–
CCC1CN(c2ncc(F)c(Nc3ccc4[nH]ncc4c3)n2)CCCN1 (centres unmarked) [Example 148, N-(2-(3-ethyl-1,4-diazepan-1-yl)-5-fluoropyrimidin-4-yl)-1H-indazol-5-amine]	55.1	–	–	46	–	–
CCC1CN(c2ncc(F)c(Nc3ccc4[nH]ncc4c3)n2)CCN1 (centres unmarked) [Example 149, N-(2-(3-ethylpiperazin-1-yl)-5-fluoropyrimidin-4-yl)-1H-indazol-5-amine]	71.4	–	–	49.4	–	–
CC1CN(c2ncc(F)c(Nc3ccc4[nH]ncc4c3)n2)CC(C)N1 (centres unmarked) [Example 150, N-(2-(3,5-dimethylpiperazin-1-yl)-5-fluoropyrimidin-4-yl)-1H-indazol-5-amine]	43.2	4970	–	44.4	–	–
Fc1cnc(N2CCNC3(CC3)C2)nc1Nc1ccc2[nH]ncc2c1 [Example 153, N-(5-fluoro-2-(4,7-diazaspiro[2.5]octan-7-yl)pyrimidin-4-yl)-1H-indazol-5-amine]	–	–	23.8	–	556	–
Fc1cnc(N2CC3CC(C2)N3)nc1Nc1ccc2[nH]ncc2c1 [Example 157, N-(2-(3,6-diazabicyclo[3.1.1]heptan-3-yl)-5-fluoropyrimidin-4-yl)-1H-indazol-5-amine]	–	–	27.2	–	89	–
Fc1cnc(N2CC3CNC3C2)nc1Nc1ccc2[nH]ncc2c1 (centres unmarked) [Example 174, N-(2-(3,6-diazabicyclo[3.2.0]heptan-3-yl)-5-fluoropyrimidin-4-yl)-1H-indazol-5-amine]	–	–	26.3	–	–	35
Clc1cnc(N2CC3CCC(C2)N3)nc1Nc1ccc2[nH]ncc2c1 [Example 195, N-(2-(3,8-diazabicyclo[3.2.1]octan-3-yl)-5-chloropyrimidin-4-yl)-1H-indazol-5-amine]	66	–	-3.1	–	405	–
Cc1nc(N2CCNCC2)nc(Nc2ccc3[nH]ncc3c2)c1C [Example 197, N-(5,6-dimethyl-2-(piperazin-1-yl)pyrimidin-4-yl)-1H-indazol-5-amine]	–	581	–	53.8	437	–
c1cc(Nc2ccc3[nH]ncc3c2)nc(N2CC3CC(C2)N3)n1 [Example 199, N-(2-(3,6-diazabicyclo[3.1.1]heptan-3-yl)pyrimidin-4-yl)-1H-indazol-5-amine]	–	525	–	49.6	151	–
c1cc(Nc2ccc3[nH]ncc3c2)nc(N2CC3CCC(C2)N3)n1 [Example 229, N-(2-(3,8-diazabicyclo[3.2.1]octan-3-yl)pyrimidin-4-yl)-1H-indazol-5-amine]	–	–	–	81	77	–
c1ccc(CNC2CCCN(c3nccc(Nc4ccc5[nH]ncc5c4)n3)C2)cc1 (centres unmarked) [Example 234, N-(2-(3-(benzylamino)piperidin-1-yl)pyrimidin-4-yl)-1H-indazol-5-amine]	–	–	–	55.6	–	1800

Second part, led by results:

inhibition at 1 µM [2] [%]	IC50 [1] [nM]	SMILES	inhibition at 1 µM [1] [%]	inhibition at 10 µM [1] [%]	IC50 [2, 3] [nM]	IC50 [2] [nM]
87.4	–	CC1CN(c2ncc(F)c(Nc3ccc4[nH]ncc4c3)n2)CCCN1 (centres unmarked) [Example 151, N-(5-fluoro-2-(3-methyl-1,4-diazepan-1-yl)pyrimidin-4-yl)-1H-indazol-5-amine]	–	55.1	80	–
77	1030	CC1CCN(c2ncc(F)c(Nc3ccc4[nH]ncc4c3)n2)CCN1 (centres unmarked) [Example 152, N-(5-fluoro-2-(5-methyl-1,4-diazepan-1-yl)pyrimidin-4-yl)-1H-indazol-5-amine]	–	50.7	–	–
82.1	–	CC1CN(c2ncc(F)c(Nc3ccc4[nH]ncc4c3)n2)C(C)CN1 (centres unmarked) [Example 155, N-(2-(2,5-dimethylpiperazin-1-yl)-5-fluoropyrimidin-4-yl)-1H-indazol-5-amine]	25	–	–	–
88.2	–	Fc1cnc(N2CC3CNCC(C3)C2)nc1Nc1ccc2[nH]ncc2c1 [Example 167, N-(2-(3,7-diazabicyclo[3.3.1]nonan-3-yl)-5-fluoropyrimidin-4-yl)-1H-indazol-5-amine]	22.5	–	–	–
17.6	–	Fc1cnc(N2CCN3CCNCC3C2)nc1Nc1ccc2[nH]ncc2c1 (centres unmarked) [Example 173, N-(5-fluoro-2-(octahydro-2H-pyrazino[1,2-a]pyrazin-2-yl)pyrimidin-4-yl)-1H-indazol-5-amine]	1.3	–	–	–
0	–	Fc1cnc(N2CC3(CCNCC3)c3ccccc32)nc1Nc1ccc2[nH]ncc2c1 [Example 176, N-(5-fluoro-2-(spiro[indoline-3,4′-piperidin]-1-yl)pyrimidin-4-yl)-1H-indazol-5-amine]	14.5	–	–	–
9.5	–	Fc1cnc(N2CC(C3CCCNC3)c3ccccc32)nc1Nc1ccc2[nH]ncc2c1 (centres unmarked) [Example 177, N-(5-fluoro-2-(3-(piperidin-3-yl)indolin-1-yl)pyrimidin-4-yl)-1H-indazol-5-amine]	10.2	–	–	–
77.6	1540	CC1CNCCN1c1ncc(Cl)c(Nc2ccc3[nH]ncc3c2)n1 (centres unmarked) [Example 179, N-(5-chloro-2-(2-methylpiperazin-1-yl)pyrimidin-4-yl)-1H-indazol-5-amine]	–	67.4	–	–
73.8	1460	CC1CN(c2ncc(Cl)c(Nc3ccc4[nH]ncc4c3)n2)CCN1 (centres unmarked) [Example 180, N-(5-chloro-2-(3-methylpiperazin-1-yl)pyrimidin-4-yl)-1H-indazol-5-amine]	–	62.6	–	–
19.7	–	CC(C)C1CN(c2ncc(Cl)c(Nc3ccc4[nH]ncc4c3)n2)CCN1 (centres unmarked) [Example 185, N-(5-chloro-2-(3-isopropylpiperazin-1-yl)pyrimidin-4-yl)-1H-indazol-5-amine]	–	41.6	–	–
47.8	–	CCC1CN(c2ncc(Cl)c(Nc3ccc4[nH]ncc4c3)n2)CCCN1 (centres unmarked) [Example 186, N-(5-chloro-2-(3-ethyl 4-diazepan-1-yl)pyrimidin-4-yl)-1H-indazol-5-amine]	–	47.7	–	–
44.9	–	CCC1CCN(c2ncc(Cl)c(Nc3ccc4[nH]ncc4c3)n2)CCN1 (centres unmarked) [Example 188, N-(5-chloro-2-(5-ethyl-1,4-diazepan-1-yl)pyrimidin-4-yl)-1H-indazol-5-amine]	–	47.9	–	–
41	–	CCC1CN(c2ncc(Cl)c(Nc3ccc4[nH]ncc4c3)n2)CCN1 (centres unmarked) [Example 190, N-(5-chloro-2-(3-ethylpiperazin-1-yl)pyrimidin-4-yl)-1H-indazol-5-amine]	–	45.9	–	–
67	1850	CC1CCN(c2ncc(Cl)c(Nc3ccc4[nH]ncc4c3)n2)CCN1 (centres unmarked) [Example 191, N-(5-chloro-2-(5-methyl-1,4-diazepan-1-yl)pyrimidin-4-yl)-1H-indazol-5-amine]	–	50.6	–	–
84.4	788	CC1CNCCN(c2ncc(Cl)c(Nc3ccc4[nH]ncc4c3)n2)C1 (centres unmarked) [Example 193, N-(5-chloro-2-(6-methyl-1,4-diazepan-1-yl)pyrimidin-4-yl)-1H-indazol-5-amine]	32.5	–	282	–
91.9	–	Cc1cc(Nc2ccc3[nH]ncc3c2)nc(N2CCNC3(CC3)C2)n1 [Example 212, N-(6-methyl-2-(4,7-diazaspiro[2.5]octan-7-yl)pyrimidin-4-yl)-1H-indazol-5-amine]	16.1	–	–	–
94.4	510	CCC1CNCCN1c1nccc(Nc2ccc3[nH]ncc3c2)n1 (centres unmarked) [Example 235, N-(2-(2-ethylpiperazin-1-yl)pyrimidin-4-yl)-1H-indazol-5-amine]	–	–	54	–
